In paper PMC12219900, “Mechanistic insights into Bcs1-mediated mitochondrial membrane translocation of the folded Rieske protein” (The EMBO Journal, 2025):

T1: Bcs1-ATPγS2-Rip1-FeS (Saccharomyces cerevisiae, UniProt P32839)
T1 construct: Bcs1 heptamer (His6-FLAG-3C, from yeast) preloaded with E. coli-expressed Rip1-FeS (aa 83-215; TwinStrep tag, 3C-treated; plasmid named Rip1 delta81); with Cytochrome b-c1 complex subunit Rieske, mitochondrial
T1 sequence (P32839 1-456): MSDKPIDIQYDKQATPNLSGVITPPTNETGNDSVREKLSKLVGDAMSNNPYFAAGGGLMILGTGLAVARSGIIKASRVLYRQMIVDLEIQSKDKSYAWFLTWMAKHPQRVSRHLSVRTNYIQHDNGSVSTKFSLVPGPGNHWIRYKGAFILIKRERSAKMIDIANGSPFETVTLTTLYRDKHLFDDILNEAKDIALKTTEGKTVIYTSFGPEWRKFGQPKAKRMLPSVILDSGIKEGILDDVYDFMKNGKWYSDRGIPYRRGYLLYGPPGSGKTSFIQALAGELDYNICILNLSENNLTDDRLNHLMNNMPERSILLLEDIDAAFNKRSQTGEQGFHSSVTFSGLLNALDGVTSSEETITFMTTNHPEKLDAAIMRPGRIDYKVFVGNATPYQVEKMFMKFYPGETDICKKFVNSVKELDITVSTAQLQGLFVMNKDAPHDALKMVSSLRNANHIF
T1 sequence (P08067 83-215 partner): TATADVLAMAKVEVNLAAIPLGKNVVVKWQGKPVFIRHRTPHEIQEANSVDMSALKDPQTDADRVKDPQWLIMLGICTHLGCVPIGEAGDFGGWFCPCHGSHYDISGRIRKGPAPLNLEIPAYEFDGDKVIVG

T2: yBcs1 (Bcs1 heptamer) (Saccharomyces cerevisiae, UniProt P32839)
T2 construct: full length 1-456, N-terminal 6xHis-FLAG-3C tag (cleavage not described), expressed in S. cerevisiae W303 bcs1delta, digitonin-solubilised, SEC in GDN, homoheptamer about 700 kDa on BN-PAGE
T2 sequence (P32839 1-456): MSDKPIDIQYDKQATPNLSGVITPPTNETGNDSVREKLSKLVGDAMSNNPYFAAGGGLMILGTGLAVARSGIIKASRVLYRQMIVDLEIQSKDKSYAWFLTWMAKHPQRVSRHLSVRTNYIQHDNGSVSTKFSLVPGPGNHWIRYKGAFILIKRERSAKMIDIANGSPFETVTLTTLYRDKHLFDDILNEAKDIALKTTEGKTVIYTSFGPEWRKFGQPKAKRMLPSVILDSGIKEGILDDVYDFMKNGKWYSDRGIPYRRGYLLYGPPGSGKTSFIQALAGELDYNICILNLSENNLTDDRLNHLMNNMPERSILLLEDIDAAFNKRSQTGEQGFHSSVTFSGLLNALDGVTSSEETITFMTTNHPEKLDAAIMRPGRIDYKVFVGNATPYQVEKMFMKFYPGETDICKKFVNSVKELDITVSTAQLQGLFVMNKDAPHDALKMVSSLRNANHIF


How the values were obtained:
Bcs1-ATPγS2-Rip1-FeS = target: T1, Bcs1-ATPγS2-Rip1-FeS; assay: cryo-EM structure; type: binding; details: Rip1-FeS added before 2 mM ATPγS, 2.5 mM MgCl2, pH 7.5, 25 °C; map only (EMD-51562)
yBcs1 (Bcs1 heptamer) = target: T2, yBcs1 (Bcs1 heptamer); assay: cryo-EM structure; BN-PAGE shift; type: binding; details: 2 mM ATPγS, 2.5 mM MgCl2, pH 7.5, 25 °C; all seven AAA sites; two states ATPγS1 (9GSN) and ATPγS2 (9GU9)
[1] = target: the molecule itself; assay: cryo-EM structure; Bcs1 first incubated with Rip1-FeS in BN-buffer with 2.5 mM MgCl2 for 10 min at 25 °C, then 2 mM ATPγS for 10 min; ATPγS2 state

Row | Molecule | cryo-EM structure (Bcs1-ATPγS2-Rip1-FeS) | cryo-EM structure; BN-PAGE shift (yBcs1 (Bcs1 heptamer)) | stoichiometry N [1]
1 | Nc1ncnc2c1ncn2[C@@H]1O[C@H](COP(=O)(O)OP(=O)(O)OP(O)(O)=S)[C@@H](O)[C@H]1O [ATPγS] | with all seven ATP-binding pockets exhibiting ATPγS density | ATPγS density was observed in each of the seven protomers as well | 
2 | Bcs1 (yeast Bcs1 heptamer) (enzyme, S. cerevisiae, UniProt P32839 1-456, looked up, Bcs1, S. cerevisiae, YDR375C, residues 1-456 (coding region of the gene); N-terminal 6xHis-FLAG-3C tag; no cleavage with 3C protease is described for Bcs1; AAA ATPase that forms heptameric rings; also called yBcs1; bc1 synthesis 1) MSDKPIDIQYDKQATPNLSGVITPPTNETGNDSVREKLSKLVGDAMSNNPYFAAGGGLMILGTGLAVARSGIIKASRVLYRQMIVDLEIQSKDKSYAWFLTWMAKHPQRVSRHLSVRTNYIQHDNGSVSTKFSLVPGPGNHWIRYKGAFILIKRERSAKMIDIANGSPFETVTLTTLYRDKHLFDDILNEAKDIALKTTEGKTVIYTSFGPEWRKFGQPKAKRMLPSVILDSGIKEGILDDVYDFMKNGKWYSDRGIPYRRGYLLYGPPGSGKTSFIQALAGELDYNICILNLSENNLTDDRLNHLMNNMPERSILLLEDIDAAFNKRSQTGEQGFHSSVTFSGLLNALDGVTSSEETITFMTTNHPEKLDAAIMRPGRIDYKVFVGNATPYQVEKMFMKFYPGETDICKKFVNSVKELDITVSTAQLQGLFVMNKDAPHDALKMVSSLRNANHIF |  |  | 7
